{"source": "patent US20240002332A1", "about": "“Small Molecule Inhibitors of SARS-CoV-2 Infections” (priority 2020, published 2024)", "key": {"in vivo": {"test": "in vivo", "settings": "C57BL/6, mouse, po, 100 mg/kg, PO 100 mg/kg (PO_B), C57BL/6 mice; for half-life: t1/2, Compound P3 in plasma"}, "[1]": {"test": "Kinetic solubility (Tier I ADME)", "settings": "kinetic from dmso stock"}, "[2]": {"test": "Rat liver microsomal (RLM) stability", "settings": "rat, microsomes"}, "SARS-CoV-2": {"test_system": "SARS-CoV-2", "settings": "EIDD-2801 250 mpk BID; Compound P3 60 mpk BID", "text": "EIDD-2801 (molnupiravir) was chosen as the positive control at 250 mpk BID oral dose."}, "[3]": {"test": "Parallel artificial membrane permeability assay (PAMPA)", "settings": "PAMPA, pH 5"}, "[4]": {"test": "Tolerability study in mice, 7 days QD, PK on the 7th day", "settings": "25, 50 and 100 mg/kg PO QD 7 days, C57BL/6J mice"}, "[5]": {"test": "Pharmacokinetics in mice IV 3 and PO 10 mg/kg; plasma, lung and liver", "settings": "for Kp: AUC ratio (tissue/plasma)"}, "[6]": {"settings": "mice, Compound P3 dosed PO 10 mg/kg, Liver"}, "[7]": {"settings": "mice, Compound P3 dosed PO 10 mg/kg, Lung"}, "[8]": {"settings": "mice, Compound P3 dosed PO 10 mg/kg, Plasma"}, "[9]": {"settings": "mouse Plasma, Compound P3 dosed IV 3 mg/kg"}, "[10]": {"settings": "mouse Plasma, Compound P3 dosed PO 10 mg/kg"}}, "data": [{"molecule": "O=C(Nc1ccc([N+](=O)[O-])cc1Cl)c1cc(Cl)ccc1OC(=O)N1CCNCC1", "note": "[Compound P3, 4-chloro-2-((2-chloro-4-nitrophenyl)carbamoyl)phenyl piperazine-1-carboxylate]", "values": [{"measurement": "Cmax", "setting": "in vivo; Cmax, Compound P3 in plasma, individual mice", "result": 2970, "unit": "ng/mL"}, {"measurement": "half-life", "setting": "in vivo; Mean n = 3", "result": 15.3, "unit": "h"}, {"measurement": "half-life", "setting": "in vivo; individual mice", "result": 12.4, "unit": "h"}, {"measurement": "Tmax", "setting": "in vivo; Compound P3 in plasma, Mean n = 3", "result": 1, "unit": "h"}, {"measurement": "Tmax", "setting": "in vivo; Compound P3 in plasma, individual mice", "result": 1, "unit": "h"}, {"measurement": "solubility", "setting": "[1]", "result": "> 43", "unit": "µg/mL"}, {"measurement": "half-life", "setting": "[2]", "result": "> 0.5", "unit": "h"}, {"measurement": "IHC immunoreactivity staining in the right lung", "setting": "SARS-CoV-2", "result": "lowered in severity"}, {"measurement": "Papp", "setting": "[3]", "result": 500, "unit": "×10⁻⁶ cm/s"}, {"measurement": "body weight", "setting": "[4]", "result": "no dose dependent weight loss"}, {"measurement": "tolerability", "setting": "[4]", "result": "tolerable for the study period, with no gross findings"}, {"measurement": "clearance", "setting": "[5]; mice", "result": "moderate"}, {"measurement": "AUC0-INF/D", "setting": "[5]; [6]", "result": 65.7, "unit": "kg·ng·h/mL/mg"}, {"measurement": "AUC_% Extrap", "setting": "[5]; [6]", "result": 0.9, "unit": "%"}, {"measurement": "Cmax/D", "setting": "[5]; [6]", "result": 24, "unit": "kg·ng/mL/mg"}, {"measurement": "AUC0-INF/D", "setting": "[5]; [7]", "result": 24400, "unit": "kg·ng·h/mL/mg"}, {"measurement": "AUC_% Extrap", "setting": "[5]; [7]", "result": 0.2, "unit": "%"}, {"measurement": "Cmax/D", "setting": "[5]; [7]", "result": 4420, "unit": "kg·ng/mL/mg"}, {"measurement": "Tmax", "setting": "[5]; [7]", "result": 1.5, "unit": "h"}, {"measurement": "t1/2", "setting": "[5]; [7]", "result": 2.8, "unit": "h"}, {"measurement": "AUC0-INF", "setting": "[5]; [8]", "result": 3530, "unit": "ng·h/mL"}, {"measurement": "AUC0-INF/D", "setting": "[5]; [8]", "result": 353, "unit": "kg·ng·h/mL/mg"}, {"measurement": "AUC_% Extrap", "setting": "[5]; [8]", "result": 0.5, "unit": "%"}, {"measurement": "Cmax", "setting": "[5]; [8]", "result": 606, "unit": "ng/mL"}, {"measurement": "Cmax/D", "setting": "[5]; [8]", "result": 60.6, "unit": "kg·ng/mL/mg"}, {"measurement": "AUCINF/D", "setting": "[5]; [9]", "result": 426, "unit": "kg·ng·h/mL/mg"}, {"measurement": "AUCLast/D", "setting": "[5]; [9]", "result": 425, "unit": "kg·ng·h/mL/mg"}, {"measurement": "AUC_%Extrap_obs", "setting": "[5]; [9]", "result": 0.06, "unit": "%"}, {"measurement": "Clast", "setting": "[5]; [9]", "result": 0.163, "unit": "ng/mL"}, {"measurement": "Cmax/D", "setting": "[5]; [9]", "result": 154, "unit": "kg·ng/mL/mg"}, {"measurement": "Tlast", "setting": "[5]; [9]", "result": 48, "unit": "h"}, {"measurement": "AUCINF/D", "setting": "[5]; [10]", "result": 353, "unit": "kg·ng·h/mL/mg"}, {"measurement": "AUCINF_obs", "setting": "[5]; [10]", "result": 3530, "unit": "ng·h/mL"}, {"measurement": "AUCLast/D", "setting": "[5]; [10]", "result": 351, "unit": "kg·ng·h/mL/mg"}, {"measurement": "AUC_%Extrap_obs", "setting": "[5]; [10]", "result": 0.5, "unit": "%"}, {"measurement": "Clast", "setting": "[5]; [10]", "result": 5.23, "unit": "ng/mL"}, {"measurement": "Cmax/D", "setting": "[5]; [10]", "result": 60.6, "unit": "kg·ng/mL/mg"}, {"measurement": "F", "setting": "[5]; [10]", "result": 83, "unit": "%"}, {"measurement": "Tlast", "setting": "[5]; [10]", "result": 30, "unit": "h"}, {"measurement": "bioavailability", "setting": "[5]; mouse, in vivo, 10 mg/kg", "result": 83, "unit": "%"}, {"measurement": "C0", "setting": "[5]; mouse, in vivo, iv, 3 mg/kg", "result": 536, "unit": "ng/mL"}, {"measurement": "Tmax", "setting": "[5]; mouse, in vivo, iv, 3 mg/kg", "result": 0.083, "unit": "h"}, {"measurement": "Vd", "setting": "[5]; mouse, in vivo, iv, 3 mg/kg", "result": 8.9, "unit": "L/kg"}, {"measurement": "clearance", "setting": "[5]; mouse, in vivo, iv, 3 mg/kg", "result": 39, "unit": "mL/min/kg"}, {"measurement": "AUC(0-inf)", "setting": "[5]; mouse, in vivo, iv, 3 mg/kg, AUCINF_obs, mouse Plasma, Compound P3 dosed IV 3 mg/kg", "result": 1280, "unit": "ng·h/mL"}, {"measurement": "AUC(0-t)", "setting": "[5]; mouse, in vivo, iv, 3 mg/kg, AUClast, mouse Plasma, Compound P3 dosed IV 3 mg/kg", "result": 1280, "unit": "ng·h/mL"}, {"measurement": "Cmax", "setting": "[5]; mouse, in vivo, iv, 3 mg/kg, Cmax, mouse Plasma, Compound P3 dosed IV 3 mg/kg", "result": 461, "unit": "ng/mL"}, {"measurement": "half-life", "setting": "[5]; mouse, in vivo, iv, 3 mg/kg, t½, mouse Plasma, Compound P3 dosed IV 3 mg/kg", "result": 3.3, "unit": "h"}, {"measurement": "AUC(0-inf)", "setting": "[5]; mouse, in vivo, po, 10 mg/kg, AUC0-INF, mice, Compound P3 dosed PO 10 mg/kg, Liver", "result": 657, "unit": "ng·h/mL"}, {"measurement": "AUC(0-inf)", "setting": "[5]; mouse, in vivo, po, 10 mg/kg, AUC0-INF, mice, Compound P3 dosed PO 10 mg/kg, Lung", "result": 244000, "unit": "ng·h/mL"}, {"measurement": "AUC(0-t)", "setting": "[5]; mouse, in vivo, po, 10 mg/kg, AUC0-last, mice, Compound P3 dosed PO 10 mg/kg, Liver", "result": 651, "unit": "ng·h/mL"}, {"measurement": "AUC(0-t)", "setting": "[5]; mouse, in vivo, po, 10 mg/kg, AUC0-last, mice, Compound P3 dosed PO 10 mg/kg, Lung", "result": 244000, "unit": "ng·h/mL"}, {"measurement": "AUC(0-t)", "setting": "[5]; mouse, in vivo, po, 10 mg/kg, AUC0-last, mice, Compound P3 dosed PO 10 mg/kg, Plasma", "result": 3510, "unit": "ng·h/mL"}, {"measurement": "Kp", "setting": "[5]; mouse, in vivo, po, 10 mg/kg, mice, Compound P3 dosed PO 10 mg/kg, Liver", "result": 0.19}, {"measurement": "Kp", "setting": "[5]; mouse, in vivo, po, 10 mg/kg, mice, Compound P3 dosed PO 10 mg/kg, Lung", "result": 69}, {"measurement": "AUC(0-t)", "setting": "[5]; mouse, in vivo, po, 10 mg/kg, AUClast, mouse Plasma, Compound P3 dosed PO 10 mg/kg", "result": 3510, "unit": "ng·h/mL"}, {"measurement": "Cmax", "setting": "[5]; mouse, in vivo, po, 10 mg/kg, Cmax, mice, Compound P3 dosed PO 10 mg/kg, Liver", "result": 240, "unit": "ng/mL"}, {"measurement": "Cmax", "setting": "[5]; mouse, in vivo, po, 10 mg/kg, Cmax, mice, Compound P3 dosed PO 10 mg/kg, Lung", "result": 44200, "unit": "ng/mL"}, {"measurement": "half-life", "setting": "[5]; mouse, in vivo, po, 10 mg/kg, t1/2, mice, Compound P3 dosed PO 10 mg/kg, Liver", "result": 4, "unit": "h"}, {"measurement": "half-life", "setting": "[5]; mouse, in vivo, po, 10 mg/kg, t1/2, mice, Compound P3 dosed PO 10 mg/kg, Plasma", "result": 2.2, "unit": "h"}, {"measurement": "half-life", "setting": "[5]; mouse, in vivo, po, 10 mg/kg, t½, mouse Plasma, Compound P3 dosed PO 10 mg/kg", "result": 2.2, "unit": "h"}]}]}
